Here are results for five molecules from patent US20210395248A1, “INHIBITORS OF HUMAN IMMUNODEFICIENCY VIRUS REPLICATION” (ViiV HEALTHCARE UK (NO.5) LIMITED, priority 2018, published 2021).

Series [1] is described as follows: Compound cytotoxicity, XTT-based colorimetric assay. The class given is cell-based. Particulars: human; uninfected MT2 cells, day 4, XTT; read-out: CC50. As to the method:
Compound cytotoxicity and the corresponding CC50 values were determined using the same protocol as described in the antiviral assay except that uninfected cells were used. Cytotoxicity was assessed on day 4 in uninfected MT2 cells by using a XTT (2,3-bis [2-Methoxy-4-nitro-5-sulfophenyl]-2H-tetrazolium-5-carboxyanilide inner salt)-based colorimetric assay (Sigma-Aldrich, St Louis, Mo.).

The test system of series [2] is recombinant NL4-3 virus (Renilla luciferase reporter) in MT-2 cells. As to the kind of experiment: HIV cell culture assay (antiviral activity, luciferase readout in infected MT-2 cells). The settings on record: NL43. The class given is cell-based. As to the method: HIV cell culture assay—MT-2 cells, 293T cells and the proviral DNA clone of NL4-3 virus were obtained from the NIH AIDS Research and Reference Reagent Program. MT-2 cells were propagated in RPMI 1640 media supplemented with 10% heat inactivated fetal bovine serum (FBS), […]. The 293T cells were propagated in DMEM media supplemented with 10% heat inactivated FBS, […]. A recombinant NL4-3 proviral clone, in which a section of the nef gene was replaced with the Renilla luciferase gene, was used to make the reference virus used in these studies. The recombinant virus was prepared through transfection of the recombinant NL4-3 proviral clone into 293T cells using Transit-293 Transfection Reagent from Mirus Bio LLC (Madison, Wis.). Supernatent was harvested after 2-3 days and the amount of virus present was titered in MT-2 cells using luciferase enzyme activity as a marker by measuring luciferase enzyme activity. Luciferase was quantitated using the EnduRen Live Cell Substrate from Promega (Madison, Wis.). Antiviral activities of compounds toward the recombinant virus were quantified by measuring luciferase activity in MT-2 cells infected for 4-5 days with the recombinant virus in the presence of serial dilutions of the compound.
The 50% effective concentration (EC50) was calculated by using the exponential form of the median effect equation where (Fa)=1/[1+(EC50/drug conc.)m] (Johnson V A, Byington RT. Infectivity Assay. In Techniques in HIV Research, ed. Aldovini A, Walker B D. 71-76. New York: Stockton Press. 1990). The 50% inhibitory concentration (EC50) was calculated by using the exponential form of the median effect equation where percent inhibition=1/[1+(EC50/drug concentration)m], where m is a parameter that reflects the slope of the concentration-response curve.

As for `Cn1nc(NS(C)(=O)=O)c2c(Cl)ccc(-n3c([C@H](Cc4cc(F)cc(F)c4)NC(=O)Cn4nc(C(F)F)c5c4C(F)(F)[C@@H]4C[C@H]54)nc4nc(N5CCO[C@H](C(F)(F)F)C5)ccc4c3=O)c21` (atropisomer, axis not shown; (P)) [Example 11, N—((S)-1-((3P)-3-(4-chloro-1-methyl-3-(methylsulfonamido)-1H-indazol-7-yl)-4-oxo-7-((S)-2-(trifluoromethyl)morpholino)-3,4-dihydropyrido[2,3-d]pyrimidin-2-yl)-2-(3,5-difluorophenyl)ethyl)-2-((3bS,4aR)-3-(difluoromethyl)-5,5-difluoro-3b,4,4a,5-tetrahydro-1H-cyclopropa[3,4]cyclopenta[1,2-c]pyrazol-1-yl)acetamide], the CC50 – broadly, the concentration giving 50% cytotoxicity – at 4 days in series [1] is > 100 nM. For the same molecule, in series [2], the EC50 (in general, the concentration that produces a half-maximal response) was 0.019 nM.
For `Cn1nc(NS(C)(=O)=O)c2c(Cl)ccc(-n3c([C@H](Cc4cc(F)cc(F)c4)NC(=O)Cn4nc(C(F)F)c5c4C(F)(F)[C@@H]4C[C@H]54)nc4nc(N5CCO[C@@H](C(F)(F)F)C5)ccc4c3=O)c21` (atropisomer, axis not shown; (P)) [Example 12, N—((S)-1-((3P)-3-(4-chloro-1-methyl-3-(methylsulfonamido)-1H-indazol-7-yl)-4-oxo-7-((R)-2-(trifluoromethyl)morpholino)-3,4-dihydropyrido[2,3-d]pyrimidin-2-yl)-2-(3,5-difluorophenyl)ethyl)-2-((3bS,4aR)-3-(difluoromethyl)-5,5-difluoro-3b,4,4a,5-tetrahydro-1H-cyclopropa[3,4]cyclopenta[1,2-c]pyrazol-1-yl)acetamide] the same measures were > 100 nM and 0.02 nM.
With `Cn1nc(NS(C)(=O)=O)c2c(Cl)ccc(-n3c([C@H](Cc4cc(F)cc(F)c4)NC(=O)Cn4nc(C(F)F)c5c4C(F)(F)[C@@H]4C[C@H]54)nc4nc(N(CCC(F)(F)F)C5CCC5)ccc4c3=O)c21` (atropisomer, axis not shown; (P)) [Example 13, N—((S)-1-((3P)-3-(4-chloro-1-methyl-3-(methylsulfonamido)-1H-indazol-7-yl)-7-(cyclobutyl(3,3,3-trifluoropropyl)amino)-4-oxo-3,4-dihydropyrido[2,3-d]pyrimidin-2-yl)-2-(3,5-difluorophenyl)ethyl)-2-((3bS,4aR)-3-(difluoromethyl)-5,5-difluoro-3b,4,4a,5-tetrahydro-1H-cyclopropa[3,4]cyclopenta[1,2-c]pyrazol-1-yl)acetamide], in series [1], the CC50 at 4 days was > 100 nM. Moreover, in series [2], the concentration for a half-maximal effect (EC50) was 0.068 nM.
Take `Cn1nc(NS(C)(=O)=O)c2c(Cl)ccc(-n3c([C@H](Cc4cc(F)cc(F)c4)NC(=O)Cn4nc(C(F)F)c5c4C(F)(F)[C@@H]4C[C@H]54)nc4nc(N(CCC(F)(F)F)CC5CC5)ccc4c3=O)c21` (atropisomer, axis not shown; (P)) [Example 14, N—((S)-1-((3P)-3-(4-chloro-1-methyl-3-(methylsulfonamido)-1H-indazol-7-yl)-7-((cyclopropylmethyl)(3,3,3-trifluoropropyl)amino)-4-oxo-3,4-dihydropyrido[2,3-d]pyrimidin-2-yl)-2-(3,5-difluorophenyl)ethyl)-2-((3bS,4aR)-3-(difluoromethyl)-5,5-difluoro-3b,4,4a,5-tetrahydro-1H-cyclopropa[3,4]cyclopenta[1,2-c]pyrazol-1-yl)acetamide]: the CC50 at 4 days in series [1] is > 100 nM. Also, the EC50 in series [2] was 0.11 nM.
For `C[C@@H]1CN(c2ccc3c(=O)n(-c4ccc(Cl)c5c(NS(C)(=O)=O)nn(C)c45)c([C@H](Cc4cc(F)cc(F)c4)NC(=O)Cc4ccn(C5CC5)n4)nc3n2)C[C@H](C)O1` (atropisomer, axis not shown; (P)) [Example 15, N—((S)-1-((3P)-3-(4-chloro-1-methyl-3-(methylsulfonamido)-1H-indazol-7-yl)-7-((2S,6R)-2,6-dimethylmorpholino)-4-oxo-3,4-dihydropyrido[2,3-d]pyrimidin-2-yl)-2-(3,5-difluorophenyl)ethyl)-2-(1-cyclopropyl-1H-pyrazol-3-yl)acetamide] the same measures were > 100 nM and 0.11 nM.
